Test results: ChEMBL document CHEMBL1157452, “First synthesis of alpha-aminoalkyl-(N-substituted)thiocarbamoyl-phosphinates: inhibitors of aminopeptidase N (APN/CD13) with the new zinc-binding group” (Bioorg Med Chem Lett, 2008)

Target: T1, Aminopeptidase N (Sus scrofa, UniProt P15145)
T1 sequence (P15145 whole entry): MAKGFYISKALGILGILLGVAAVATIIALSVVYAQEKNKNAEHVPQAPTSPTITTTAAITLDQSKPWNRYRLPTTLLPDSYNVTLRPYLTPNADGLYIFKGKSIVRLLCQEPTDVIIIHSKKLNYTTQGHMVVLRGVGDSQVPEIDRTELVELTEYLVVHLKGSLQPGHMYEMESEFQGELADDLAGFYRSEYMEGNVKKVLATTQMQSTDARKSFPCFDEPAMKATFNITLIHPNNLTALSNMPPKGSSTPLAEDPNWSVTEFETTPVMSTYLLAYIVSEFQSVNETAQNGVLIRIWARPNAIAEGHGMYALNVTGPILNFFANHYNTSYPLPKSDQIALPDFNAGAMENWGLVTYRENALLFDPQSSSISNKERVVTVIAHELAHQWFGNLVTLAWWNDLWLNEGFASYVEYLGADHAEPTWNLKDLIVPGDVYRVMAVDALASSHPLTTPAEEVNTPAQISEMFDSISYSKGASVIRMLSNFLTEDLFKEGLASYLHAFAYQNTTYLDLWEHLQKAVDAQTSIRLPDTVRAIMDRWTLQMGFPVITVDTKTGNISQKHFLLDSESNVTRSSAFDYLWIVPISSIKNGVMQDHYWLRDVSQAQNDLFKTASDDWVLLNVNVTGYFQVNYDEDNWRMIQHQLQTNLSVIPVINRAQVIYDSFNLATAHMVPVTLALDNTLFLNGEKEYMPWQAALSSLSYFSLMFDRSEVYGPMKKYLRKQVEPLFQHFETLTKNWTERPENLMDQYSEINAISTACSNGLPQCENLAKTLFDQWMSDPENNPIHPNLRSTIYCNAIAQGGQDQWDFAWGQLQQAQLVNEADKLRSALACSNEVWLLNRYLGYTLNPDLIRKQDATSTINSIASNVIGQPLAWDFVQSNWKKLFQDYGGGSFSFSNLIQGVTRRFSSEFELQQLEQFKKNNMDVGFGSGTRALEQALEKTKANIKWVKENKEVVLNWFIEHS
Assay: Inhibition of pig kidney aminopeptidase N

| Compound | IC50 [nM] | Ki [nM] |
| --- | --- | --- |
| CCCCCCNC(=S)P(=O)(O)C(N)C(C)C (configuration not stated) | 1180 |  |
| CCCCCCNC(=S)P(=O)(O)C(N)CC(C)C (configuration not stated) | 500 |  |
| CNC(=S)P(=O)(O)C(N)CC(C)C (configuration not stated) | 10600 |  |
| CC(C)CNC(=S)P(=O)(O)C(N)C(C)C (configuration not stated) | 1900 |  |
| CCCCC(N)P(=O)(O)C(=S)NCCc1ccccc1 (configuration not stated) | 730 |  |
| COc1ccc(CNC(=S)P(=O)(O)C(N)CCc2ccccc2)cc1 (configuration not stated) | 380 |  |
| CC(N)P(=O)(O)C(=S)NCCc1ccccc1 (configuration not stated) | 4200 |  |
| COc1ccc(CNC(=S)P(=O)(O)C(C)N)cc1 (configuration not stated) | 1120 |  |
| CCCC(N)P(=O)(O)C(=S)NCc1ccc(OC)cc1 (configuration not stated) | 680 |  |
| CCCCC(N)P(=O)(O)C(=S)NCc1ccc(OC)cc1 (configuration not stated) | 250 | 143 |
| CCCC(N)P(=O)(O)C(=S)NCCc1ccccc1 (configuration not stated) | 2280 |  |
